Laboratory results reported in patent US9475784B2, “4,6-diarylaminothiazines as BACE1 inhibitors and their use for the reduction of beta-amyloid production” (BRISTOL-MYERS SQUIBB COMPANY, priority 2012, dated 2016).
Where a name gives a salt, the structure may show the parent alone.

System: Aβ42 production in H4 cells stably transfected with APP751 containing the Swedish mutation (H4 APP751 SWE clone 8.20)
Assay: Cellular assay for inhibition of Aβ1-42 production (H4 APP751 SWE clone 8.20)
Assay type: cell-based
Conditions: H4 APP751 SWE clone 8.20 cells, 19 h incubation
Experimental: Cellular Assays for Inhibition of Aβ1-40 and Aβ1-42 Production
H4 cells stably transfected with APP751 containing the Swedish mutation (H4 APP751 SWE clone 8.20, developed at BMS) were maintained in log phase through twice weekly passage at a 1:20 split. […] Following incubation for 19 h in 5% CO2 at 37° C., plates were briefly centrifuged (1000 rpm, 5 min). A 10 μl aliquot from each well was transferred to a second assay plate (Costar 3709) for Aβ40 measurements. Antibody cocktails were freshly prepared by dilution into 40 mM Tris-HCl (pH 7.4) with 0.2% BSA and added to assay plates. For Aβ42 measurements, antibodies specific for the Aβ42 neoepitope (565, developed at BMS; conjugated to the Wallac reagent (Perkin Elmer)) and the N-terminal sequence of Aβ peptide (26D6, developed at SIBIA; conjugated to APC (Perkin Elmer)) were mixed and 20 μl of the mixture was added to each well of the incubated cell plate yielding a final concentration of 0.8 ng/well 565 and 75 ng/well 26D6. For the Aβ40 measurements, antibodies specific for the Aβ40 neoepitope (TSD, developed at BMS; conjugated to the Wallac reagent (Perkin Elmer)) and 26D6 as described above were mixed and 20 μl of the mixture was added to the 10 μl aliquots which had been removed previously from the cell plate yielding a final concentration of 1.6 ng/well TSD and 17.5 ng/well 26D6. Assay plates containing antibodies were sealed with aluminum foil and incubated overnight at 4° C. Signal was determined using a Viewlux counter (Perkin Elmer) and IC50 values determined using curve fitting in CurveMaster (Excel Fit based).

[1] = Table 5A, 6-alkyl and 6-substituted phenyl thiazine examples
[2] = Table 5B, 6-heterocyclic thiazine examples

Compound | IC50 [1] | IC50 [2]
COc1ccc([C@@H]2C[C@@H](c3cc(-c4cncnc4)c(F)cc3F)N=C(N)S2)cc1OC (racemic) [Example 1, (±)-4-(2,4-difluoro-5-(pyrimidin-5-yl)phenyl)-6-(3,4-dimethoxyphenyl)-5,6-dihydro-4H-1,3-thiazin-2-amine] | 1.1 µM | –
NC1=N[C@H](c2cccc(-c3cncnc3)c2)C[C@@H](c2ccccc2)S1 (racemic) [Example 2, (±)-6-phenyl-4-(3-(pyrimidin-5-yl)phenyl)-5,6-dihydro-4H-1,3-thiazin-2-amine] | 4.1 µM | –
COc1ccc([C@@H]2C[C@@H](c3cccc(-c4cncnc4)c3)N=C(N)S2)cc1OC (racemic) [Example 3, (±)-6-(3,4-dimethoxyphenyl)-4-(3-(pyrimidin-5-yl)phenyl)-5,6-dihydro-4H-1,3-thiazin-2-amine] | 1.1 µM | –
NC1=N[C@H](c2cccc(-c3cncnc3)c2)C[C@@H](Cc2ccccc2)S1 (racemic) [Example 4, (±)-6-benzyl-4-(3-(pyrimidin-5-yl)phenyl)-5,6-dihydro-4H-1,3-thiazin-2-amine] | 7.4 µM | –
NC1=N[C@H](c2cccc(-c3cncnc3)c2)C[C@@H](C2CCCCC2)S1 (racemic) [Example 5, (±)-6-cyclohexyl-4-(3-(pyrimidin-5-yl)phenyl)-5,6-dihydro-4H-1,3-thiazin-2-amine] | 3.8 µM | –
C=CCC[C@@H]1C[C@@H](c2cccc(-c3cncnc3)c2)N=C(N)S1 (racemic) [Example 6, (±)-6-(but-3-enyl)-4-(3-(pyrimidin-5-yl)phenyl)-5,6-dihydro-4H-1,3-thiazin-2-amine] | 14 µM | –
COc1ccc([C@@H]2C[C@@H](c3ccc(F)c(-c4cncnc4)c3)N=C(N)S2)cc1OC (racemic) [Example 7, (±)-6-(3,4-dimethoxyphenyl)-4-(4-fluoro-3-(pyrimidin-5-yl)phenyl)-5,6-dihydro-4H-1,3-thiazin-2-amine] | 1.7 µM | –
COc1ccc([C@@H]2C[C@@H](c3cc(-c4cncnc4)ccc3F)N=C(N)S2)cc1OC (racemic) [Example 8, (±)-6-(3,4-dimethoxyphenyl)-4-(2-fluoro-5-(pyrimidin-5-yl)phenyl)-5,6-dihydro-4H-1,3-thiazin-2-amine] | 1.9 µM | –
NC1=N[C@H](c2cccc(-c3cncnc3)c2)C[C@@H](c2ccc(OC(F)(F)F)cc2)S1 (racemic) [Example 9, (±)-4-(3-(pyrimidin-5-yl)phenyl)-6-(4-(trifluoromethoxy)phenyl)-5,6-dihydro-4H-1,3-thiazin-2-amine] | 8.9 µM | –
COc1ccccc1[C@@H]1C[C@@H](c2cccc(-c3cncnc3)c2)N=C(N)S1 (racemic) [Example 11, (±)-6-(2-methoxyphenyl)-4-(3-(pyrimidin-5-yl)phenyl)-5,6-dihydro-4H-1,3-thiazin-2-amine•TFA] | 2.4 µM | –
N#Cc1ccc([C@@H]2C[C@@H](c3cccc(-c4cncnc4)c3)N=C(N)S2)cc1 (racemic) [Example 12, 4-((±)-2-amino-4-(3-(pyrimidin-5-yl)phenyl)-5,6-dihydro-4H-1,3-thiazin-6-yl)benzonitrile] | 1.8 µM | –
COc1ccc([C@@H]2C[C@@H](c3cccc(-c4cncnc4)c3)N=C(N)S2)cc1 (racemic) [Example 13, (±)-6-(4-methoxyphenyl)-4-(3-(pyrimidin-5-yl)phenyl)-5,6-dihydro-4H-1,3-thiazin-2-amine] | 3.7 µM | –
NC1=N[C@H](c2cccc(-c3cncnc3)c2)C[C@@H](c2ccc(Cl)cc2)S1 (racemic) [Example 14, (±)-6-(4-chlorophenyl)-4-(3-(pyrimidin-5-yl)phenyl)-5,6-dihydro-4H-1,3-thiazin-2-amine•TFA] | 2.7 µM | –
COc1cccc([C@@H]2C[C@@H](c3cccc(-c4cncnc4)c3)N=C(N)S2)c1 (racemic) [Example 15, (±)-6-(3-methoxyphenyl)-4-(3-(pyrimidin-5-yl)phenyl)-5,6-dihydro-4H-1,3-thiazin-2-amine•TFA] | 2.8 µM | –
NC1=N[C@H](c2cccc(-c3cncnc3)c2)C[C@@H](c2ccc(F)cc2)S1 (racemic) [Example 16, (±)-6-(4-fluorophenyl)-4-(3-(pyrimidin-5-yl)phenyl)-5,6-dihydro-4H-1,3-thiazin-2-amine•TFA] | 2.6 µM | –
COc1ccc([C@]23CCCCC2[C@@H](c2cccc(-c4cncnc4)c2)N=C(N)S3)cc1 (mixture of isomers) [Example 17, (±)-8a-(4-methoxyphenyl)-4-(3-(pyrimidin-5-yl)phenyl)-4a,5,6,7,8,8a-hexahydro-4H-benzo[e][1,3]thiazin-2-amine•TFA] | 3.3 µM | –

Compound | IC50 [1] | IC50 [2]
Cc1n[nH]c(C)c1[C@@H]1C[C@@H](c2cccc(-c3cncnc3)c2)N=C(N)S1 (racemic) [Example 18, (±)-6-(3,5-dimethyl-1H-pyrazol-4-yl)-4-(3-(pyrimidin-5-yl)phenyl)-5,6-dihydro-4H-1,3-thiazin-2-amine•TFA] | – | 7.1 µM
Cc1noc(C)c1[C@@H]1C[C@@H](c2cccc(-c3cncnc3)c2)N=C(N)S1 (racemic) [Example 19, (±)-6-(3,5-dimethylisoxazol-4-yl)-4-(3-(pyrimidin-5-yl)phenyl)-5,6-dihydro-4H-1,3-thiazin-2-amine•TFA] | – | 0.23 µM
NC1=N[C@H](c2cccc(-c3cncnc3)c2)C[C@@H](c2cccnc2)S1 (racemic) [Example 20, (±)-6-(pyridin-3-yl)-4-(3-(pyrimidin-5-yl)phenyl)-5,6-dihydro-4H-1,3-thiazin-2-amine•TFA] | – | 7.8 µM
NC1=N[C@H](c2cccc(-c3cncnc3)c2)C[C@@H](c2c[nH]cn2)S1 (racemic) [Example 21, (±)-6-(1H-imidazol-4-yl)-4-(3-(pyrimidin-5-yl)phenyl)-5,6-dihydro-4H-1,3-thiazin-2-amine•TFA] | – | > 30 µM
NC1=N[C@H](c2cccc(-c3cncnc3)c2)C[C@@H](c2ccccn2)S1 (racemic) [Example 22, (±)-6-(pyridin-2-yl)-4-(3-(pyrimidin-5-yl)phenyl)-5,6-dihydro-4H-1,3-thiazin-2-amine•TFA] | – | 2 µM
NC1=N[C@H](c2cccc(-c3cncnc3)c2)C[C@@H](c2cnccn2)S1 (racemic) [Example 23, (±)-6-(pyrazin-2-yl)-4-(3-(pyrimidin-5-yl)phenyl)-5,6-dihydro-4H-1,3-thiazin-2-amine•TFA] | – | 2.4 µM
Cc1ncsc1[C@@H]1C[C@@H](c2cccc(-c3cncnc3)c2)N=C(N)S1 (racemic) [Example 24, (±)-6-(4-methylthiazol-5-yl)-4-(3-(pyrimidin-5-yl)phenyl)-5,6-dihydro-4H-1,3-thiazin-2-amine•TFA] | – | 1 µM
Cc1c([C@@H]2C[C@@H](c3cccc(-c4cncnc4)c3)N=C(N)S2)cnn1C (racemic) [Example 25, (±)-6-(1,5-dimethyl-1H-pyrazol-4-yl)-4-(3-(pyrimidin-5-yl)phenyl)-5,6-dihydro-4H-1,3-thiazin-2-amine•TFA] | – | 3.4 µM
Cc1nn(C)cc1[C@@H]1C[C@@H](c2cccc(-c3cncnc3)c2)N=C(N)S1 (racemic) [Example 26, (±)-6-(1,3-dimethyl-1H-pyrazol-4-yl)-4-(3-(pyrimidin-5-yl)phenyl)-5,6-dihydro-4H-1,3-thiazin-2-amine•TFA] | – | 2.5 µM
Cn1cc([C@@H]2C[C@@H](c3cccc(-c4cncnc4)c3)N=C(N)S2)cn1 (racemic) [Example 27, (±)-6-(1-methyl-1H-pyrazol-4-yl)-4-(3-(pyrimidin-5-yl)phenyl)-5,6-dihydro-4H-1,3-thiazin-2-amine•TFA] | – | 2.6 µM
Cc1nn(C)c(C)c1[C@@H]1C[C@@H](c2cccc(-c3cncnc3)c2)N=C(N)S1 (racemic) [Example 28, (±)-4-(3-(pyrimidin-5-yl)phenyl)-6-(1,3,5-trimethyl-1H-pyrazol-4-yl)-5,6-dihydro-4H-1,3-thiazin-2-amine•TFA] | – | > 30 µM
Cc1noc(C)c1[C@@H]1C[C@@H](c2cc(-c3cncnc3)c(F)cc2F)N=C(N)S1 (racemic) [Example 29, (±)-4-(2,4-difluoro-5-(pyrimidin-5-yl)phenyl)-6-(3,5-dimethylisoxazol-4-yl)-5,6-dihydro-4H-1,3-thiazin-2-amine] | – | 0.2 µM
COc1ccc([C@@H]2C[C@@H](c3cc(-c4cncnc4)cs3)N=C(N)S2)cc1OC (racemic) [Example 30, (±)-6-(3,4-dimethoxyphenyl)-4-(4-(pyrimidin-5-yl)thiophen-2-yl)-5,6-dihydro-4H-1,3-thiazin-2-amine] | 8 µM | –
COc1ccc([C@@H]2C[C@@H](c3cccc(-c4cccc(C#N)c4)c3)N=C(N)S2)cc1OC (racemic) [Example 31, 3′-((±)-2-amino-6-(3,4-dimethoxyphenyl)-5,6-dihydro-4H-1,3-thiazin-4-yl)biphenyl-3-carbonitrile] | 8.9 µM | –
CC#Cc1cncc(-c2cc([C@@H]3C[C@@H](c4ccc(OC)c(OC)c4)SC(N)=N3)c(F)cc2F)c1 (racemic) [Example 32, (±)-4-(2,4-difluoro-5-(5-(prop-1-ynyl)pyridin-3-yl)phenyl)-6-(3,4-dimethoxyphenyl)-5,6-dihydro-4H-1,3-thiazin-2-amine] | 1 µM | –
